Results: the NIST ThermoML archive (doi:10.1016/j.jct.2005.10.004)
“And” between values parts separate entries of the source, which are not always exact repeats. Equal entries are not always repeated.

Assay: xn = mol fraction of the nth substance listed
Conditions: Gas, Buoyancy - hydrostatic balance with magnetic suspension - one sinker

N#N [nitrogen] + C
Conditions	mass density
299.91 K, 7416.3 kPa, x2 = 0.8	59.8697 kg/m3
299.91 K, 7417.6 kPa, x2 = 0.8	59.8813 kg/m3
299.91 K, 9999.1 kPa, x2 = 0.8	82.4744 kg/m3
299.91 K, 10000 kPa, x2 = 0.8	82.4859 kg/m3
299.91 K, 10001 kPa, x2 = 0.8	82.4925 kg/m3
299.91 K, 12313 kPa, x2 = 0.8	102.883 kg/m3
299.91 K, 12314 kPa, x2 = 0.8	102.89 kg/m3
299.91 K, 14412 kPa, x2 = 0.8	121.138 kg/m3 and 121.127 kg/m3
299.91 K, 16342 kPa, x2 = 0.8	137.386 kg/m3
299.91 K, 16343 kPa, x2 = 0.8	137.395 kg/m3
299.92 K, 2421.7 kPa, x2 = 0.8	18.4741 kg/m3
299.92 K, 4995 kPa, x2 = 0.8	39.3048 kg/m3
299.92 K, 9109.5 kPa, x2 = 0.8	74.6412 kg/m3
299.99 K, 13043 kPa, x2 = 0.8998	105.072 kg/m3
299.99 K, 15058 kPa, x2 = 0.8998	122.114 kg/m3 and 122.112 kg/m3
299.99 K, 17101 kPa, x2 = 0.8998	138.717 kg/m3 and 138.72 kg/m3
299.99 K, 19357 kPa, x2 = 0.8998	155.97 kg/m3
299.99 K, 19358 kPa, x2 = 0.8998	155.975 kg/m3
300 K, 899.61 kPa, x2 = 0.8998	6.30257 kg/m3
300 K, 2023 kPa, x2 = 0.8998	14.4126 kg/m3
300 K, 2023.1 kPa, x2 = 0.8998	14.4136 kg/m3
300 K, 2766.3 kPa, x2 = 0.8998	19.9248 kg/m3
300 K, 4003.3 kPa, x2 = 0.8998	29.3523 kg/m3
300 K, 4948.9 kPa, x2 = 0.8998	36.7656 kg/m3
300 K, 5998.7 kPa, x2 = 0.8998	45.1981 kg/m3
300 K, 5998.9 kPa, x2 = 0.8998	45.2004 kg/m3
300 K, 6904.7 kPa, x2 = 0.8	55.4385 kg/m3
300 K, 6954.3 kPa, x2 = 0.8998	53.0353 kg/m3
300 K, 8009.1 kPa, x2 = 0.8998	61.855 kg/m3
300 K, 8009.7 kPa, x2 = 0.8998	61.8592 kg/m3
300 K, 9029.6 kPa, x2 = 0.8998	70.5133 kg/m3 and 70.5136 kg/m3
300 K, 9030 kPa, x2 = 0.8998	70.5158 kg/m3
300 K, 10050 kPa, x2 = 0.8998	79.2704 kg/m3
300 K, 11034 kPa, x2 = 0.8998	87.7596 kg/m3
300 K, 12063 kPa, x2 = 0.8998	96.6441 kg/m3
300 K, 12064 kPa, x2 = 0.8998	96.6562 kg/m3
300 K, 12996 kPa, x2 = 0.8998	104.673 kg/m3
300 K, 14010 kPa, x2 = 0.8998	113.319 kg/m3
300 K, 14012 kPa, x2 = 0.8998	113.335 kg/m3
300 K, 16021 kPa, x2 = 0.8998	130.057 kg/m3
300 K, 16023 kPa, x2 = 0.8998	130.071 kg/m3
300 K, 17936 kPa, x2 = 0.8998	145.268 kg/m3
300 K, 17939 kPa, x2 = 0.8998	145.292 kg/m3
300 K, 20071 kPa, x2 = 0.8998	161.173 kg/m3
300 K, 20074 kPa, x2 = 0.8998	161.19 kg/m3
300.01 K, 19196 kPa, x2 = 0.8	160.005 kg/m3
349.98 K, 2438.8 kPa, x2 = 0.8	15.6874 kg/m3
349.98 K, 4939.5 kPa, x2 = 0.8	32.1898 kg/m3
349.98 K, 17023 kPa, x2 = 0.8	112.695 kg/m3
349.99 K, 2438.9 kPa, x2 = 0.8	15.6871 kg/m3
349.99 K, 4939.9 kPa, x2 = 0.8	32.193 kg/m3
349.99 K, 7493.5 kPa, x2 = 0.8	49.3399 kg/m3
349.99 K, 7494.4 kPa, x2 = 0.8	49.3451 kg/m3
349.99 K, 8821.7 kPa, x2 = 0.8	58.3187 kg/m3
349.99 K, 8822.8 kPa, x2 = 0.8	58.3243 kg/m3
349.99 K, 12241 kPa, x2 = 0.8	81.3717 kg/m3
349.99 K, 12243 kPa, x2 = 0.8	81.3884 kg/m3
349.99 K, 14938 kPa, x2 = 0.8	99.2371 kg/m3
349.99 K, 14942 kPa, x2 = 0.8	99.2671 kg/m3
349.99 K, 17029 kPa, x2 = 0.8	112.731 kg/m3
350 K, 1986.4 kPa, x2 = 0.8998	11.9478 kg/m3
350 K, 1986.5 kPa, x2 = 0.8998	11.9485 kg/m3
350 K, 3975.2 kPa, x2 = 0.8998	24.2393 kg/m3
350 K, 5966.2 kPa, x2 = 0.8998	36.8151 kg/m3
350 K, 8018.7 kPa, x2 = 0.8998	49.9871 kg/m3
350 K, 10026 kPa, x2 = 0.8998	62.975 kg/m3
350 K, 12032 kPa, x2 = 0.8998	75.9524 kg/m3
350 K, 12033 kPa, x2 = 0.8998	75.9539 kg/m3
350 K, 13967 kPa, x2 = 0.8998	88.3679 kg/m3
350 K, 13968 kPa, x2 = 0.8998	88.373 kg/m3
350 K, 16066 kPa, x2 = 0.8998	101.591 kg/m3
350 K, 16068 kPa, x2 = 0.8998	101.601 kg/m3
350 K, 16070 kPa, x2 = 0.8998	101.613 kg/m3
350 K, 16189 kPa, x2 = 0.8998	102.36 kg/m3
350 K, 18024 kPa, x2 = 0.8998	113.606 kg/m3
350 K, 19983 kPa, x2 = 0.8998	125.244 kg/m3
350 K, 19984 kPa, x2 = 0.8998	125.244 kg/m3
350.01 K, 8197.7 kPa, x2 = 0.8	54.0918 kg/m3
350.01 K, 8197.9 kPa, x2 = 0.8	54.0933 kg/m3
350.01 K, 10149 kPa, x2 = 0.8	67.2887 kg/m3
350.01 K, 11859 kPa, x2 = 0.8	78.8049 kg/m3
350.01 K, 11862 kPa, x2 = 0.8	78.8216 kg/m3
400 K, 4571.9 kPa, x2 = 0.8	25.5965 kg/m3
400 K, 5986.1 kPa, x2 = 0.8998	31.5654 kg/m3
400 K, 8029.2 kPa, x2 = 0.8998	42.4672 kg/m3
400 K, 9750.2 kPa, x2 = 0.8	54.7419 kg/m3
400 K, 12023 kPa, x2 = 0.8998	63.6651 kg/m3
400 K, 13644 kPa, x2 = 0.8	76.2876 kg/m3
400 K, 14030 kPa, x2 = 0.8998	74.1643 kg/m3
400 K, 18095 kPa, x2 = 0.8998	94.8699 kg/m3
400 K, 18098 kPa, x2 = 0.8998	94.8835 kg/m3
400 K, 19369 kPa, x2 = 0.8998	101.162 kg/m3
400.01 K, 2027.7 kPa, x2 = 0.8998	10.5861 kg/m3
400.01 K, 4038.9 kPa, x2 = 0.8998	21.2078 kg/m3
400.01 K, 4040.2 kPa, x2 = 0.8998	21.2133 kg/m3
400.01 K, 8029.4 kPa, x2 = 0.8998	42.4641 kg/m3
400.01 K, 10035 kPa, x2 = 0.8998	53.1468 kg/m3 and 53.1474 kg/m3
400.01 K, 14024 kPa, x2 = 0.8998	74.1363 kg/m3
400.01 K, 15973 kPa, x2 = 0.8998	84.171 kg/m3
400.01 K, 15985 kPa, x2 = 0.8998	84.2306 kg/m3
400.01 K, 19362 kPa, x2 = 0.8998	101.12 kg/m3
400.07 K, 1968.6 kPa, x2 = 0.8	10.9663 kg/m3
400.07 K, 5054.8 kPa, x2 = 0.8	28.3114 kg/m3
400.07 K, 7579.8 kPa, x2 = 0.8	42.5457 kg/m3
400.07 K, 7586.8 kPa, x2 = 0.8	42.5825 kg/m3
400.07 K, 10122 kPa, x2 = 0.8	56.8069 kg/m3
400.07 K, 10130 kPa, x2 = 0.8	56.8516 kg/m3
400.07 K, 13112 kPa, x2 = 0.8	73.3611 kg/m3
400.07 K, 13116 kPa, x2 = 0.8	73.3802 kg/m3
400.07 K, 13262 kPa, x2 = 0.8	74.1822 kg/m3
400.07 K, 15317 kPa, x2 = 0.8	85.3273 kg/m3
400.07 K, 15324 kPa, x2 = 0.8	85.3629 kg/m3
400.07 K, 17285 kPa, x2 = 0.8	95.7881 kg/m3
400.07 K, 17324 kPa, x2 = 0.8	95.9938 kg/m3
